The record followed here is PubChem BioAssay (NCI).

Where “and” joins values, the source holds several entries; their conditions need not be identical. Equal values may be shown once.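 Five compound concentrations were applied to cells in 96-well plates for 48 hours; endpoints were derived by simple linear interpolation of the resulting dose-response curve. GI50 = concentration required for 50% inhibition of growth. TGI marks complete inhibition of growth.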

This assay concerns MDA-MB-468 breast. Briefly: NCI tumour cell line growth inhibition, 48 h.
Consider `O=c1nc2oc3ccc4ccccc4c3cc-2s1`, for which the GI50 is 0.551 µM and the TGI worked out at 19.5 µM.
For `COc1ccc(C(=O)c2cc3c(N)c(C(=O)Nc4cccc5ccccc45)sc3nc2C)cc1`, the GI50 was 0.22 µM and the TGI was over 50 µM.
For `NC(=O)c1c(NC(=O)c2ccc3c(c2)OCO3)sc2c1CCC(=O)C2`, the GI50 was 1.96 µM and the TGI is 4.43 µM.
In the case of `CCCCN(CCCC)c1ccc(C(=N)c2ccc(N(CCCC)CCCC)cc2)cc1`, the GI50 was 0.189 µM and the TGI turned out to be 0.748 µM.
`CCOc1ccccc1N=Nc1c(C)[nH]n(-c2nc(-c3ccccc3)cs2)c1=O`: the GI50 is 8.49 µM and the TGI was over 100 µM.
Taken in the same sequence, the figures for `Cc1ccc(CNc2c3ccccc3nc3cc(NC(=O)CCN4CCCC4)ccc23)cc1` were 0.449 µM and 1.63 µM.
For `O=C(COc1ccc(/C=C2\Oc3ccccc3C2=O)cc1)Nc1nc2c(s1)CCCC2` the same measures were 0.309 µM and 1.86 µM.
`CC[C@H](CO)Nc1nc(NCc2ccccc2)n2ncc(C(C)C)c2n1`: the GI50 is 1.88 µM and the TGI turned out to be 5.19 µM.
With `O=C(/C=C/c1ccc([N+](=O)[O-])cc1)c1ccc2c3c(cccc13)CC2`, the GI50 was 2.98 µM and the TGI stood at 19.3 µM.
For the molecule `COc1cc(C2c3cc4c(cc3OC(NNC(N)=O)C2C)OCO4)cc(OC)c1O` (configuration not stated), the GI50 was 7.5 µM and the TGI is over 100 µM.
For `CN1CC[C@@H](c2c(O)cc(O)c3c(=O)cc(-c4ccccc4Cl)oc23)[C@@H]1CO` the same measures were 0.251 µM and 0.772 µM.
Taken in the same sequence, the figures for `Nc1nc(Nc2ccc(C3CCC(N4CCOCC4)CC3)cc2)nn1-c1ccccn1` (configuration not stated) were 11.2 µM and over 100 µM.
For `Cc1cc(N2CCCC2)nc(N(CCNc2ccnc3cc(Cl)ccc23)Cc2ccco2)n1` the same measures were 1.96 µM and 6.67 µM.
Consider `CC1(C)[C@@H](OC(N)=O)[C@H]2O[C@H]2[C@]2(CO)[C@H]3CC[C@]4(C)[C@@H](c5ccc(=O)oc5)[C@@H](Cl)C[C@]4(O)C3=CC[C@@H]12`, for which the GI50 was 0.021 µM and the TGI stood at 0.0965 µM.
For `CS(=O)(=O)c1nccc(-c2c(-c3ccc(F)c(OCc4ccc(F)cc4)c3)nc3sccn23)n1` the same measures were 2.43 µM and 7.03 µM.
For `COc1cc(C(=O)NC2CCN(C)CC2)c(F)cc1Nc1ncc2c(n1)N(C1CCCC1)CC(F)(F)C(=O)N2C` the same measures were under 0.01 µM and 0.633 µM.
Taken in the same sequence, the figures for `NC(=S)N/N=C/c1ncccc1N` were 1.89 µM and 10.2 µM.
Take `COc1cccc(-n2ncc3c(N/N=C/c4ccncc4)ncnc32)c1`: the GI50 was 5.15 µM and the TGI is over 25 µM.
For the molecule `COC(=O)c1cc2ccc(OC(C)=O)c(OC(C)=O)c2cn1`, the GI50 is 16.1 µM and the TGI amounted to 33.5 µM.
Taken in the same sequence, the figures for `Cc1ccc(S(=O)(=O)Nc2cccc3[nH]c(C(F)(F)F)nc23)cc1` were 0.536 µM and 26.1 µM.
On to `CN(C)c1ccc2nc3ccc(=[N+](C)C)cc-3sc2c1`, for which the GI50 is 0.233 µM and 0.469 µM; the TGI is 1.01 µM and 3.63 µM.
Turning to `Nc1[nH]nc2nc(-c3cccs3)cc(C(F)(F)F)c12`, the GI50 is over 17.1 µM and the TGI was over 25 µM.
For the molecule `O=[N+]([O-])c1cccc([As]=[As]c2cccc([N+](=O)[O-])c2)c1` (configuration not stated), the GI50 was 0.0529 µM and the TGI turned out to be 0.194 µM.
Taken in the same sequence, the figures for `COc1ccc(/C=C2\CCCC3=C2NC(N)=NC3c2ccc(OC)c(OC)c2)cc1OC` (configuration not stated) were 0.921 µM and 8.84 µM.
Turning to `O=C(NC[C@H](O)CO)c1ccncc1Nc1ccc(I)cc1F`, the GI50 is > 10 µM and 12.1 µM; the TGI is over 66 µM.
Turning to `O=C(Nc1ccc(Cl)c(Cl)c1)O/N=C\c1c(Cl)ccc([N+](=O)[O-])c1Cl`, the GI50 is 1.08 µM and the TGI was found to be 2.72 µM.
For the molecule `COc1ccc(C(=O)/C=C/c2c(Cl)c3c(c(OC)c2Cl)OCC(=O)N3)cc1`, the GI50 is 1.69 µM and the TGI was determined as 3.7 µM.
For `C1CN(SSN2CCOCC2)CCO1` the same measures were over 100 µM and over 100 µM.
With `Cc1c2c(nn1C)CSCc1cc(n(C)n1)CSc1cc(c3ccccc3c1)OCCCc1c(C(=O)O)n(C)c3c-2c(Cl)ccc13`, the GI50 is 0.185 µM and the TGI was 0.487 µM.
For `O=C(Nc1ccc(Cl)cc1)Nc1ccc(Nc2nncc3ccccc23)cc1` the same measures were 2.57 µM and 9.47 µM.
Consider `CC(C)(O)CC(=O)NCCn1ccc2ncnc(Nc3ccc(Oc4cccc(C(F)(F)F)c4)c(Cl)c3)c21`, for which the GI50 was 0.272 µM and the TGI was determined as 4.06 µM.
Taken in the same sequence, the figures for `O=C(Nc1cccc(NC(=O)Nc2cc(C(F)(F)F)ccc2Cl)c1)Nc1cc(C(F)(F)F)ccc1Cl` were 1.1 µM and 7.24 µM.
`Cn1cc(C2=C(c3cccc(OCC(O)CO)c3)C(=O)NC2=O)c2ccccc21` (configuration not stated): the GI50 is over 25 µM and the TGI is over 25 µM.
For `CN(C)c1ccc2c(c1)OC(N)=C(C#N)C2c1ccc2c(c1)CCO2` (configuration not stated), the GI50 was 0.117 µM and the TGI was determined as 47.7 µM.
For `CCN(CC)Cc1ccc(Nc2nccc(-c3cnn4ncccc34)n2)cc1` the same measures were 0.035 µM and 0.0975 µM.
Take `CCOc1cc2ncc(C#N)c(Nc3ccc(OCc4ccccn4)c(Cl)c3)c2cc1NC(=O)/C=C/CN(C)C`: the GI50 was < 0.01 µM and 0.00501 µM; the TGI was 0.0415 µM and 0.0479 µM.
